Source: US20250388544A1, “HETEROAROMATIC INHIBITORS OF ASTACIN PROTEINASES” (VIVORYON THERAPEUTICS N.V., priority 2019, published 2025)

Legend:
Format in all cases: biochemical
hMMP 13 = target: T1, hMMP 13 (Homo sapiens, UniProt P45452); assay: Residual enzyme activity of other metalloproteases; settings: read-out: Residual enzyme activity MMP13; for remaining activity at 10 µM: 10 μM inhibitor; for remaining activity at 200 µM: 200 μM inhibitor
T1 construct: purchased R&D systems
Experimental: (§1) A typical assay of 250 μl total volume measured in black 96 well plates consisted of 100 μl buffer, 50 μl enzyme at a final concentration of 5e-8 M to 2e-10 M, 50 μl substrate (0.15 to 80 μM, in buffer, 0.5% DMSO) and 50 μl inhibitor solution (in buffer, 1% DMSO). In case of 125 μl assay volume (black 96 half area well plates) all volumes were cut in half. Enzymatic activity of ADAMs was measured in 384 well plates with 60 μl total assay volume consisting of 20 μl inhibitor, 20 μl buffer, 10 μl enzyme and 10 μl substrate.
(§2) MMPs were activated prior to measurement by APMA (p-aminophenylmercuric acetate) treatment according to manufacturer's instructions (R&D systems).

hMMP 2 = target: T2, hMMP 2 (Homo sapiens, UniProt P08253); assay: Residual enzyme activity of other metalloproteases; settings: read-out: Residual enzyme activity MMP2; for remaining activity at 10 µM: 10 μM inhibitor; for remaining activity at 200 µM: 200 μM inhibitor
T2 construct: purchased Abnova
T2 sequence (P08253 110-660): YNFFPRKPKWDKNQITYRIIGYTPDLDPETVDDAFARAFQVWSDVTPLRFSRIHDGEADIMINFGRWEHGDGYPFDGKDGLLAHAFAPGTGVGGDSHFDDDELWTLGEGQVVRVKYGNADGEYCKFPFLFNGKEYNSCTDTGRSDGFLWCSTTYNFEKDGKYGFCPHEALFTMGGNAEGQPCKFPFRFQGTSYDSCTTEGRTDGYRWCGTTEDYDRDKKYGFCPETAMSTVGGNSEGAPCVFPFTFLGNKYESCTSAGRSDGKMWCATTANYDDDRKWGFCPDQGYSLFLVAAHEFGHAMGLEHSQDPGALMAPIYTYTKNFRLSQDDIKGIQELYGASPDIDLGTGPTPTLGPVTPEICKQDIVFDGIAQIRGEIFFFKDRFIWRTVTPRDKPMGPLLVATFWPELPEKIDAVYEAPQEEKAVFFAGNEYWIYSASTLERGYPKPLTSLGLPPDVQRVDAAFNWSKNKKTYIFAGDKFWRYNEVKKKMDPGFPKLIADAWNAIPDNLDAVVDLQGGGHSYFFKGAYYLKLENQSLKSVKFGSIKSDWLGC
Experimental: as §1, §2

hMeprin α = target: T3, hMeprin α (Homo sapiens, UniProt Q16819); assay: Enzymatic assay, quenched peptide substrate cleavage, method A; settings: geometric mean (geometric SD factor in parentheses), read-out: Meprin alpha IC50
T3 sequence (Q16819 66-746): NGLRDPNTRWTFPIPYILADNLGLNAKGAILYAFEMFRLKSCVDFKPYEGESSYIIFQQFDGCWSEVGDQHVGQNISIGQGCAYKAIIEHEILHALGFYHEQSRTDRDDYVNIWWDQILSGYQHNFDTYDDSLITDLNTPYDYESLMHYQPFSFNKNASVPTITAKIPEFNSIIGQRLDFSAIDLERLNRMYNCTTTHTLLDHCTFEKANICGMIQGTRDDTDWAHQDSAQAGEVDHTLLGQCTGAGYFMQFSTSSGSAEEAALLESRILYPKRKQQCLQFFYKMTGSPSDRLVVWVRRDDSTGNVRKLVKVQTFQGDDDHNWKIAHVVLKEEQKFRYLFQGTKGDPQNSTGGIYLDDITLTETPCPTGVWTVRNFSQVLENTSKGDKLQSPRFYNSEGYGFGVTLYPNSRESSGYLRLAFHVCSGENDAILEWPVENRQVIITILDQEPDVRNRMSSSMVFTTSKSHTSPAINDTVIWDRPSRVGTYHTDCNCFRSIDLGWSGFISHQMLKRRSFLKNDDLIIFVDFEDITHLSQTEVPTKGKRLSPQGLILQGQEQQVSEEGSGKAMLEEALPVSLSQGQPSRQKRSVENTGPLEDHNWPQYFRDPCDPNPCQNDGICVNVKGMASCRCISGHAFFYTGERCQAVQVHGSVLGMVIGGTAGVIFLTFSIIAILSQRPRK
Experimental: as §1, with “The determination of enzymatic activity was based on the cleavage of internally quenched peptide substrates. A typical” for “A typical”
(§3) Based on method B Ki^(app) values were determined using Morrison's equation. All measurements were performed using a fluorescence plate reader (FLUOSTAR OPTIMA, BMG Labtech) at 30° C. The kinetic parameters were determined at least in duplicates on separate days. The excitation/emission wavelength was 340/420 nm. The kinetic data was evaluated using GRAFIT software (version 7.0.3, Erithacus Software).

hMeprin β = target: T4, hMeprin β (Homo sapiens, UniProt Q16820); assay: as above; settings: geometric mean (geometric SD factor in parentheses), read-out: Meprin beta IC50
T4 sequence (Q16820 62-701): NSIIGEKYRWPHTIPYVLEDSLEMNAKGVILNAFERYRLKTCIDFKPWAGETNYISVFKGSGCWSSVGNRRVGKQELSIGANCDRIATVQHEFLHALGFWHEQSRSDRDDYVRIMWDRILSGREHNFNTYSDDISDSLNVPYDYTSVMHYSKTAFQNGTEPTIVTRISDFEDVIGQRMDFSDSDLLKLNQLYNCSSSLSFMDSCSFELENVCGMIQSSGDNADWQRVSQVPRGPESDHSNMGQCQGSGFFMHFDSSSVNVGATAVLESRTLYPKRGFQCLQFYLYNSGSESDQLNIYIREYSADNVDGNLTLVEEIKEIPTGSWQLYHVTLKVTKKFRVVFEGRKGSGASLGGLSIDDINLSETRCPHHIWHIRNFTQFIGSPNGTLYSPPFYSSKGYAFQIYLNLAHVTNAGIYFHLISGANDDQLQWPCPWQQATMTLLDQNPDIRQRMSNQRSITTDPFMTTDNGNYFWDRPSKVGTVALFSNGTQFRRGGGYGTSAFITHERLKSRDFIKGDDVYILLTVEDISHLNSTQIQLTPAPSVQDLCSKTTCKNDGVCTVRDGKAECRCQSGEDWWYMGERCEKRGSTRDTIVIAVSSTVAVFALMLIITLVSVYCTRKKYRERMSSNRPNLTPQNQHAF
Experimental: as §1, with “The determination of enzymatic activity was based on the cleavage of internally quenched peptide substrates. A typical” for “A typical”
as §3

Row | Compound | remaining activity at 10 µM (hMMP 13) [%] | remaining activity at 200 µM (hMMP 13) [%] | remaining activity at 10 µM (hMMP 2) [%] | remaining activity at 200 µM (hMMP 2) [%] | IC50 (hMeprin α) [nM] | IC50 (hMeprin β) [nM]
1 | O=C(Cc1c(-c2ccccc2)nn(Cc2ccc3c(c2)OCO3)c1-c1ccccc1)NO [Example 43, 2-[1-(1,3-Benzodioxol-5-ylmethyl)-3,5-diphenyl-1H-pyrazol-4-yl]ethanehydroxamic acid] | 78 | 51 | 77 | 60 | – | –
2 | O=C(Cc1c(-c2cccc(C(=O)O)c2)n[nH]c1-c1ccc(Cl)c(O)c1F)NO [Example 63, 3-[5-(4-Chloro-2-fluoro-3-hydroxy-phenyl)-4-[2-(hydroxyamino)-2-oxo-ethyl]-1H-pyrazol-3-yl]benzoic acid] | 105 | 73 | 95 | 81 | – | –
3 | O=C(Cc1c(-c2ccccc2)noc1-c1ccccc1)NO [Example 2, 2-(3,5-Diphenylisoxazol-4-yl)ethanehydroxamic acid] | 80 | 31 | 87 | 34 | 7 | 831
4 | O=C(Cn1c(-c2ccccc2)nc2ccccc21)NO [Example 13, 2-(2-Phenylbenzimidazol-1-yl)ethanehydroxamic acid] | 102 | 72 | 89 | 46 | 173 | 1630
5 | COc1ccc(-c2n[nH]c(-c3ccccc3)c2CC(=O)NO)cc1OC [Example 49, 2-[3-(3,4-Dimethoxyphenyl)-5-phenyl-1H-pyrazol-4-yl]ethanehydroxamic acid] | 101 | 18 | 83 | 26 | – | –
6 | O=C(Cc1c(-c2ccc3c(c2)OCO3)n[nH]c1-c1ccccc1)NO [Example 50, 2-[3-(1,3-Benzodioxol-5-yl)-5-phenyl-1H-pyrazol-4-yl]ethanehydroxamic acid] | 71 | 10 | 41 | 8 | – | –
7 | O=C(Cn1c(-c2ccccc2)cc2ccccc21)NO [Example 25, 2-(2-Phenylindol-1-yl)ethanehydroxamic acid] | 77 | 54 | 85 | 41 | 72 | 1140
8 | O=C(Cc1c(-c2ccccc2)nn(Cc2cccc(C(=O)O)c2)c1-c1ccccc1)NO [Example 41, 3-[[4-[2-(Hydroxyamino)-2-oxo-ethyl]-3,5-diphenyl-1H-pyrazol-1-yl]methyl]benzoic acid] | 83 | 34 | 89 | 34 | – | –
9 | O=C(CCc1c(-c2ccccc2)n[nH]c1-c1ccccc1)NO [Example 3, 3-(3,5-Diphenyl-1H-pyrazol-4-yl)propanehydroxamic acid] | 93 | 68 | 97 | 77 | 108 | 8070
10 | O=C(CCc1c(-c2ccccc2)noc1-c1ccccc1)NO [Example 4, 3-(3,5-Diphenylisoxazol-4-yl)propanehydroxamic acid] | 79 | 66 | 98 | 74 | 32 | 13700
11 | O=C(Cc1c(-c2ccccc2)nn(Cc2ccc(C(=O)O)cc2)c1-c1ccccc1)NO [Example 40, 4-[[4-(2-(Hydroxyamino)-2-oxo-ethyl]-3,5-diphenyl-1H-pyrazol-1-yl]methyl]benzoic acid] | 86 | 22 | 85 | 24 | – | –
12 | O=C(Cc1c(-c2cc(F)c(O)c(Cl)c2)n[nH]c1-c1ccccc1)NO [Example 54, 2-[3-(3-Chloro-5-fluoro-4-hydroxy-phenyl)-5-phenyl-1H-pyrazol-4-yl]ethanehydroxamic acid] | 88 | 28 | 66 | 17 | – | –
13 | O=C(Cc1c(-c2ccccc2)n[nH]c1-c1ccccc1)NO [Example 1, 2-(3,5-Diphenyl-1H-pyrazol-4-yl)ethanehydroxamic acid] | 75 | 67 | 104 | 61 | 4 | 204
14 | COc1cccc(-c2n[nH]c(-c3ccccc3)c2CC(=O)NO)c1 [Example 47, 2-[3-(3-Methoxyphenyl)-5-phenyl-1H-pyrazol-4-yl]ethanehydroxamic acid] | 85 | 28 | 78 | 17 | – | –
15 | O=C(Cn1c(-c2ccccc2)ccc1-c1ccccc1)NO [Example 9, 2-(2,5-Diphenylpyrrol-1-yl)ethanehydroxamic acid] | 79 | 5 | 83 | 1 | 34 | 4320
16 | O=C(Cc1c(-c2ccccc2)nn(Cc2ccc(Cl)c(O)c2F)c1-c1ccccc1)NO [Example 42, 2-[1-(4-Chloro-2-fluoro-3-hydroxybenzyl)-3,5-diphenyl-1H-pyrazol-4-yl]ethanehydroxamic acid] | 84 | 9 | 69 | 18 | – | –
